From patent US11377423B2, “Inhibitors of histone deacetylase” (The Broad Institute, Inc., priority 2012, dated 2022) come the findings set out here.

For experiment [1], the system named is INS-1E cells. Kind of experiment: Palmitate and/or glucose-induced beta-cell apoptosis, caspase-3/7 activation. Type of experiment: cell-based, rat. Conditions: 0.5 mM palmitate and/or 25 mM glucose, 48 hours. How it is done:
Compounds of the invention were evaluated for their ability to suppress cytokine-induced beta-cell apoptosis and palmitate and/or glucose-induced beta-cell apoptosis by inhibition of HDAC3. Assay protocols were as follows: Cell culture and reagents. […] Recombinant IL-1β, IFN-γ, and TNF-α were purchased from R&D Systems. Palmitate, D-glucose and fatty acids-free low endotoxin BSA were purchased from Sigma. Palmitate was solubilized in 90% ethanol, heated to 60° C. and used 1:100 dilution in media. Caspase-Glo 3/7 was from Promega and 3-(4,5-dimethylthiazol-2-yl)-2,5-diphenyltetrazolium bromide (MTT) was from Calbiochem. Antibodies for HDAC1, HDAC2, HDAC3, pJNK, JNK cleaved caspase-9 and secondary horseradish-peroxidase conjugated goat anti-mouse and anti-rabbit antibodies were from Cell Signaling. Antibody for beta-actin was from Sigma and antibody against CHOP (GADD153) from Abcam. HDAC inhibitors were purchased from Selleck Chemicals or synthesized in-house. Primers were from Integrated DNA Technologies, High Capacity cDNA RT kit and SYBR green master mix were purchased from Applied Biosystems. […] Luminescence was measured after a two-hour incubation using an Envision plate reader (PerkinElmer). […] Apoptosis was measured by caspase-3/7 activation using a commercially available kit. […]

Experiment [2] addresses HDAC1 (Homo sapiens (Human), UniProt Q13547). Description: Caliper HDAC enzymatic endpoint assay, HDAC1. Type of experiment: biochemical.
Method: Substrate A was prepared as 2 mM in DMSO. Its final concentration in the assay for HDACs 1, 2, 3, 6 is 2 μM.
Below is the HDAC and Substrate concentration used in this assay.

The structures appear in SMILES notation. Read-outs that look alike come from different tables or passages of the source.

Sequence of HDAC1 (Q13547 whole entry): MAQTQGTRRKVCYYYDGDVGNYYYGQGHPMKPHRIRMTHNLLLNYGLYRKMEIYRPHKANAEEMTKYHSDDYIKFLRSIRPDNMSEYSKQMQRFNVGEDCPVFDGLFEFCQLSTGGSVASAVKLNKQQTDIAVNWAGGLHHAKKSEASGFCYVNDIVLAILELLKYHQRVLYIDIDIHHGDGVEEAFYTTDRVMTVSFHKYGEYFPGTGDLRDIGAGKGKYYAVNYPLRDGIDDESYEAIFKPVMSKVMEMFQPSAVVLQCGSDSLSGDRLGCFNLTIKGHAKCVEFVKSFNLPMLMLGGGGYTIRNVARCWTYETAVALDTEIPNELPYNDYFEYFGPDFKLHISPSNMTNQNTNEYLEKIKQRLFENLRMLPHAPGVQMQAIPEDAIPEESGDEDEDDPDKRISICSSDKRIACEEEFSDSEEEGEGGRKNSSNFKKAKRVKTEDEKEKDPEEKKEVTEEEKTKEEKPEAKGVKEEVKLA

`CC(=O)Nc1ccc(C(=O)Nc2ccc(F)cc2N)cc1` [Compound 1, 4-acetamido-N-(2-amino-4-fluorophenyl)benzamide]: the “suppression of palmitate and/or glucose-induced beta-cell apoptosis (caspase activity)” value in experiment [1] was “as effective at suppressing palmitate and/or glucose-induced beta-cell apoptosis as CI-994”. Moreover, the IC50 (in general, the concentration that inhibits the measured activity by half) in experiment [2] (read-out: HDAC1 IC50 3 h Prein, Table 2, 3 h preincubation) stood at 1250 nM; in experiment [2] (read-out: HDAC1 IC50 3 h Preinc, Table 2A, 3 h preincubation), 1250 nM; in experiment [2] (read-out: HDAC1 IC50 @3 hr, 3 hr preincubation) it was 1250 nM.
